From PMC8692498, “Synthesis and multifaceted pharmacological activity of novel quinazoline NHE-1 inhibitors” (Scientific Reports, 2021)
Entries after “also recorded” stand apart in the source; their conditions may differ.

Key:
[1] = system: primary peritoneal macrophages of C57BL/6J mice; experiment: Nitric oxide synthesis (nitrite, Griess reagent) in LPS-stimulated peritoneal macrophages; type: cell-based; conditions: 100 μM
Experimental: (§1) Peritoneal macrophages (PM) were isolated from the peritoneal exudate of 30 male C57bl/6j mice. To accumulate PM, 1 ml of 3% peptone solution was injected intraperitoneally. After 3 days the mice were euthanized by cervical dislocation. Cells of peritoneal exudate were obtained by aseptically washing the abdominal cavity with 5 ml of sterile Hanks’s solution (+ 4-6 °C) without calcium and magnesium ions. The total number and viability of cells were assessed in a Goryaev counting chamber (Russia) with a 0.4% trypan blue staining (Sigma-Aldrich, USA). The cell concentration was adjusted to 1.0×10^6 cells/ml in DMEM (Gibco) supplemented with 2 mM L-glutamine (Gibco), 10% heat-inactivated fetal bovine serum (BioClot, Germany), 100 U/ml penicillin and […] streptomycin (Gibco) and plated 200 μl/well in 96-well transparent plates (SPL Life Sciences Co., Ltd., Korea). It was left for 2 h at 37°C in a humidified atmosphere with 5% CO2, after which the wells were washed to remove non-adherent cells. After 24 hours of incubation, 20 μl of the supernatant was removed and 20 μl of solutions of test compounds were added 30 min before E. coli O127:B8 LPS (100 ng/ml final concentration). Experiments were run in 3 independent replicates.
The accumulation of nitrite anion (a stable end product of NO decomposition produced by iNOS) in supernatants was determined using a standard Griess reagent. Briefly, 50 μl of supernatants collected 22 hours after incubation of PM with test and control compounds were mixed with 50 μl of 1% sulfonamide in 2.5% H3PO4 and 50 μl of 0.1% N-(1-naphthyl) ethylenediamine in 2,5% H3PO4. After incubation at 23 °C for 10 min in an orbital shaker, the optical density was determined at a wavelength of 550 nm with a microplate reader Infinite M200 PRO (Tecan, Austria).

IL-6 secretion = experiment: Interleukin-6 secretion (ELISA) from LPS-stimulated peritoneal macrophages; type: cell-based, mice; conditions: male, C57BL/6J, mouse, primary peritoneal macrophages stimulated with LPS; CC50 versus IC50 of IL-6 secretion; read-out: selectivity of IL-6 inhibition over cytotoxicity
Experimental: as §1
(§2) Cell supernatant was collected and centrifuged at 1000 g for 20 min in a 2-16PK Sigma centrifuge (Germany). The concentration of IL-6 was determined by ELISA using a commercial kit (Cloud-clone ELISA kit) with a microplate reader Infinite M200 PRO (Tecan, Austria).

[2] = system: primary peritoneal macrophages of C57BL/6J mice; experiment: as above; type: cell-based
Experimental: as §1, §2

[3] = Cytotoxicity study (LDH activity in the medium) in peritoneal macrophages; type: cell-based; conditions: male, C57BL/6J, mouse, primary peritoneal macrophages; murine peritoneal macrophages, LDH
Experimental: as §1
(§3) The activity of lactate dehydrogenase (LDH) in a cell culture medium served as a marker of membrane permeability and cell death. Aliquotes of supernatants were taken after 24 h of inoculation with test compounds, mixed with 250 μl of […] NADH solution in 54 mM phosphate buffered saline (pH 7.5). Then, 25 μl of a 6.48 mM pyruvate solution was added to the mixture. The optical density was followed at a wavelength of 340 nm for 20 min. Conversion of optical density into cell viability was carried out according to a standard curve (DMSO-treated cells as 100% and 0.01% Triton X-100-treated cells as 0% viable cells).

[4] = system: primary peritoneal macrophages of C57BL/6J mice; experiment: as above; type: cell-based; conditions: 100 μM, peritoneal macrophages
Experimental: as §1, §3

intraocular pressure = experiment: Intraocular pressure studies in outbred rats (TonoVet); type: in vivo
Experimental: The experiments were carried out on 75 adult outbred rats of both sexes, which were kept in standard cages at a temperature of 25 °C and a standard light regime. Animals were randomly assigned to the control and experimental groups (n = 5). Before the start of the experiment, the rats had free access to food and water. Intraocular pressure (IOP) was measured with a TonoVet device (Finland)[44] which measures IOP with a short touch of a small disposable tip in the center of the cornea, no corneal anesthesia is required. The study was carried out according to the published method. One drop (50 μl) of a test 0.4% solution of the compound was instilled into the right eye, and deionized water was added to the left eye. IOP was measured in both eyes. The left eye, in turn, serves to assess the possible systemic exposure of the test compounds. […] IOP-lowering activity was assessed as the maximum decrease in IOP from the initial values. At 9:00 AM, baseline IOP was measured in animals of all groups. Experiments were run in 5 independent replicates.

ICR mice = experiment: Tail suspension test (antidepressant activity); type: in vivo; conditions: intragastrically 30 min before test, dose equimolar to 2.6 mg/kg amiloride
Experimental: The experiment was carried out on 36 male ICR mice weighing 22-25 g, divided into groups of 6 animals each under room lighting (300 lux). […] In experiments, test substances were administered intragastrically 30 min before the start of the test. Experimental groups received test compounds in an equimolar dose to the comparison drug amiloride. Animals of the remaining groups were treated with 2.6 mg/kg amiloride, 10 mg/kg amitriptyline, or 8 mg/kg imipramine. Distilled water was administered to the control group. The time of immobilization of the animals was recorded.

[5] = Solubility under the conditions of the platelet aggregation assay; type: physicochemical; conditions: antiplatelet assay
Experimental: Test compounds were dissolved in 99% DMSO (stock concentration 40 mM) and stored at –25 °C. If sediment or opalescence was detected, 5% Tween 20 (Merck) was added. Serial dilutions were prepared ex tempore in a media suitable for the particular study. Final concentration in samples: DMSO <0.25%, Tween 20 <0.025% (were added to control samples in equal concentrations).
Functional activity of platelets was determined on a two-channel laser analyzer of platelet aggregation "BIOLA-220 LA" (Russia) as described previously. The experiments were carried out on 6 male rabbits weighing 3.5–4 kg. To prepare platelet-rich plasma (PRP) venous blood was taken from the ear marginal vein of a rabbit, stabilized with a 3.8% sodium citrate solution in a ratio of 9:1 and centrifuged for 10 min at 1500 rpm. PRP (300 μL) and a solution of the test compound at a concentration of 100 μM were sequentially introduced into the cell of the aggregometer. The samples were incubated in thermostated cells of the aggregometer at 37 °C for 5 min. To induce aggregation adenosine-5-diphosphoric acid (ADP, Sigma, USA) at a final concentration of 5 μM, was added to the cuvette. Acetylsalicylic acid (Shandong Xinhua Pharmaceutical Co., Ltd., China) was used as a reference drug. Experiments were run in 5 independent replicates.

NHE-1 = biological target: T1, NHE-1 (Oryctolagus cuniculus, UniProt P23791); experiment: NHE-1 inhibition assay on rabbit platelets (platelet shape change after acidification with sodium propionate, laser aggregometer); type: cell-based
T1 construct: endogenous in cells; host or cells: rabbit platelets in platelet-rich plasma (male rabbits)
T1 sequence (P23791 whole entry): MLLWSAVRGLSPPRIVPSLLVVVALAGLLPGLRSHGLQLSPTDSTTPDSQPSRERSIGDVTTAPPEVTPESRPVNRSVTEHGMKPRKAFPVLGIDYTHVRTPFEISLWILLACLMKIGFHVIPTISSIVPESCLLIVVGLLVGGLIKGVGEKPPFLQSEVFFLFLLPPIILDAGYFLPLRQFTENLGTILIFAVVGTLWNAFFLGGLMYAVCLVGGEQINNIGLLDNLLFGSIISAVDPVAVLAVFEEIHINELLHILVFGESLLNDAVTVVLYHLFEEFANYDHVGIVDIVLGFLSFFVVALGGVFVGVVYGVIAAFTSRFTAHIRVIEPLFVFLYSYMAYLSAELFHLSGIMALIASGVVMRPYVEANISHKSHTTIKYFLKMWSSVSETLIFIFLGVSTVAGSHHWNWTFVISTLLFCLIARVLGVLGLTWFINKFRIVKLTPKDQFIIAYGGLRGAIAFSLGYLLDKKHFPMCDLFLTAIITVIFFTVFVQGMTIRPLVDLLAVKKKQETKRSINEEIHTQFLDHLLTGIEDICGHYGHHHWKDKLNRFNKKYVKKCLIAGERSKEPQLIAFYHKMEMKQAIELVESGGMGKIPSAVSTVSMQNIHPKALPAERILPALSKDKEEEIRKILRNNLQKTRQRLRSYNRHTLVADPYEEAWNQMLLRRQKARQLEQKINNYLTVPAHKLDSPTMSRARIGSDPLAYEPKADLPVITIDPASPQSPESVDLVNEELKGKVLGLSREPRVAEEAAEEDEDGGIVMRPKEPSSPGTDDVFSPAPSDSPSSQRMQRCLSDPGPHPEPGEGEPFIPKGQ

IC50 ([2]; Mus musculus, Peritoneal macrophage, LPS-stimulated murine macrophages, read-out: IC50 of IL-6 synthesis/secretion): 32.1 µM
solubility under assay conditions [5]: insoluble under assay conditions
IC50 (NHE-1): 0.0058 µM
SMILES: Cn1c(=O)n(Cc2nnc(N)[nH]2)c(=O)c2ccccc21 [Compound 3e, 3-[(5-Amino-4H-1,2,4-triazol-3-yl)methyl]-1-methylquinazoline-2,4(1H,3H)-dione]
inhibition of the synthesis of nitric oxide [1]: statistically significantly inhibit
selectivity ratio (IL-6 secretion): 4 to 6
secretion of interleukin 6 ([2]; LPS-stimulated macrophages, screening (Fig. 4)): suppressed
CC50 at 24 h [3]: 138 µM
effect on cell viability [4]: absence of a statistically significant effect on cell viability
IOP-lowering effect size (intraocular pressure; compared with zoniporide and timolol): negligible
IOP-lowering activity (intraocular pressure; one drop (50 μl) of 0.4% solution instilled): statistically significant activity
antidepressant activity (ICR mice): antidepressant activity similar to amiloride; also recorded: antidepressant activity comparable with amiloride
